Measurements published in patent US9168259B2 (GRÜNENTHAL GMBH, priority 2010, dated 2015).

Biological target: T1, KCNQ2/3 channels (Homo sapiens, UniProt O43525+O43526)
T1 construct: expressed in transfected cells
Assay: Fluorescence assay using a voltage sensitive dye (fluorimetry)
Assay type: cell-based
Settings: CHO-K1 cells expressing KCNQ2/3; for Emax: CHO-K1, plateau effect relative to saturated retigabine (50 μM) = 100%, negative values = antagonistic, read-out: Fluorimetry % efficacy (retigabine = 100%); for EC50: IC50 where % efficacy is negative, read-out: Fluorimetry EC50/IC50
Text: Method I. Fluorescence Assay Using a Voltage Sensitive Dye (Fluorimetry)
These voltage-sensitive dyes are fluorescent dyes and, therefore, are forming the link between cell potential influenced by KCNQ modulation and fluorescence intensity. A KCNQ agonist leads to an opening of the channel, potassium and dye efflux, a following hyperpolarization and a reduction of the inner fluorescence intensity in a kinetic protocol. If applying an ion jump by KCl depolarization, KCNQ agonists increase the ΔF/F value. An antagonist performs vice versa, respectively.
Therefore, ‘fluorimetry EC50’ is a measure for the compound potency. The compound efficacy is mirrored by ‘fluorimetry % efficacy’ (‘% Efficacy’) and refers to the maximum response achievable by the test compound, i.e. the plateau effect. This drug's plateau effect is related to the plateau effect, which can be achieved by applying a saturated concentration of a reference compound, e.g. Retigabine (50 μM), in independent wells of the same experimental plate or series.
[…] CHO-K1 cells expressing KCNQ2/3 channels are cultivated adherently at 37° C., 5% CO2 and 95% humidity in cell culture bottles (e.g. 80 cm^2 TC flasks, Nunc) with DMEM-high glucose (Sigma Aldrich, D7777) including 10% FCS (PAN Biotech, e.g. 3302-P270521) or alternatively MEM Alpha Medium (1×, liquid, Invitrogen, #22571), 10% fetal calf serum (FCS) (Invitrogen, #10270-106, heat-inactivated) and the necessary selection antibiotics.
The cell number is determined using a CASY™ cell counter (TCC, Schärfe System). Depending on the optimal density for each individual cell line, 20,000-30,000 cells/well/100 μl are seeded onto 96-well Corning™ CellBIND™ assay plates (Flat Clear Bottom Black Polystyrene Microplates, #3340). Freshly seeded cells are then left to settle for one hour at room temperature, followed by incubation for 24 hours at 37° C., 5% CO2 and 95% humidity.
The voltage-sensitive fluorescent dye from the Membrane Potential Assay Kit (Red™ Bulk format part R8123 for FLIPR, MDS Analytical Technologies™) is prepared by dissolving the contents of one vessel Membrane Potential Assay Kit Red Component A in 200 ml of extracellular buffer (ES buffer, 120 mM NaCl, 1 mM KCl, 10 mM HEPES, 2 mM CaCl2, 2 mM MgCl2, 10 mM glucose; pH 7.4). After removal of the nutrient medium, the cells are washed once with 200 μl of ES buffer, then loaded for 45 min at room temperature in 100 μl of dye solution in the dark.
Fluorescence measurements are carried out in a BMG Labtech FLUOstar™, BMG Labtech NOVOstar™ or BMG Labtech POLARstar™ instrument (525 nm excitation, 560 nm emission, Bottom Read mode). After incubation with the dye, 50 μl of the test substances in the desired concentrations, or 50 μl of ES buffer for control purposes, are applied to the wells of the assay plate and incubated for 30 min at room temperature while being shielded from light. The fluorescence intensity of the dye is then measured for 5 min and the fluorescence value F1 of each well is thus determined at a given, constant time. 15 μl of a KCl solution are then added to each well (final concentration of potassium ions 92 mM). The change in fluorescence intensity is subsequently monitored until all the relevant values have been obtained (mainly 5-30 min). At a given time post KCl application, a fluorescence value F2 is determined, in this case at the time of the fluorescence peak.
For calculation, the fluorescence intensity F2 is corrected for the fluorescence intensity F1, and the activity (ΔF/F) of the target compound on the potassium channel is determined as follows:
In order to determine whether a substance has agonistic activity,
[formula] can be related to
[formula] of control wells.
[formula] is determined by adding to the well only the buffer solution instead of the test substance, determining the value F1K of the fluorescence intensity, adding the potassium ions as described above, and measuring a value F2K of the fluorescence intensity.

T1 sequence (O43526 whole entry): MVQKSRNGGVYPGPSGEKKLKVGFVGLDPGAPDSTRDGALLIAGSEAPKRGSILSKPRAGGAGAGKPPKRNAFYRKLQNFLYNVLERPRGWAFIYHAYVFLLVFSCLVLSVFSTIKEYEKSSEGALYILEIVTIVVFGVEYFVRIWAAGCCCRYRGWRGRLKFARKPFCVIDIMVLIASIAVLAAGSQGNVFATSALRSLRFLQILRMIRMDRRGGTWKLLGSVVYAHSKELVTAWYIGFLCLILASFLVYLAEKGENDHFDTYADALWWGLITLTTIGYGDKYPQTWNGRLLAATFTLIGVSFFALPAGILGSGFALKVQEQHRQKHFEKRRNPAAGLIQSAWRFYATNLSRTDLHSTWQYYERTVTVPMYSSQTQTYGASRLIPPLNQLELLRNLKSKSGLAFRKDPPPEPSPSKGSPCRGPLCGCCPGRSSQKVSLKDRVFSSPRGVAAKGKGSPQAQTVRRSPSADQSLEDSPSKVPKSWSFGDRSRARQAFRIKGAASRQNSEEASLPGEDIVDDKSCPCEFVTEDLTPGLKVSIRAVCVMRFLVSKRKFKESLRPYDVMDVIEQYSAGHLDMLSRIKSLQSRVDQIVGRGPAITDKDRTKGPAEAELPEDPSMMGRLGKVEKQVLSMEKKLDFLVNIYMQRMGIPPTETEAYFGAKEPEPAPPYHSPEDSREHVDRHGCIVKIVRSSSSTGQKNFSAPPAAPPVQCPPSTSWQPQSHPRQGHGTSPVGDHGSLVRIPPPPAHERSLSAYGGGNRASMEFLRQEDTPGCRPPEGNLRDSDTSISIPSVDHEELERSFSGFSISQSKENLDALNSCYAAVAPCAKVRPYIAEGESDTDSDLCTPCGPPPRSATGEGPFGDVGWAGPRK
T1 sequence (O43525 whole entry): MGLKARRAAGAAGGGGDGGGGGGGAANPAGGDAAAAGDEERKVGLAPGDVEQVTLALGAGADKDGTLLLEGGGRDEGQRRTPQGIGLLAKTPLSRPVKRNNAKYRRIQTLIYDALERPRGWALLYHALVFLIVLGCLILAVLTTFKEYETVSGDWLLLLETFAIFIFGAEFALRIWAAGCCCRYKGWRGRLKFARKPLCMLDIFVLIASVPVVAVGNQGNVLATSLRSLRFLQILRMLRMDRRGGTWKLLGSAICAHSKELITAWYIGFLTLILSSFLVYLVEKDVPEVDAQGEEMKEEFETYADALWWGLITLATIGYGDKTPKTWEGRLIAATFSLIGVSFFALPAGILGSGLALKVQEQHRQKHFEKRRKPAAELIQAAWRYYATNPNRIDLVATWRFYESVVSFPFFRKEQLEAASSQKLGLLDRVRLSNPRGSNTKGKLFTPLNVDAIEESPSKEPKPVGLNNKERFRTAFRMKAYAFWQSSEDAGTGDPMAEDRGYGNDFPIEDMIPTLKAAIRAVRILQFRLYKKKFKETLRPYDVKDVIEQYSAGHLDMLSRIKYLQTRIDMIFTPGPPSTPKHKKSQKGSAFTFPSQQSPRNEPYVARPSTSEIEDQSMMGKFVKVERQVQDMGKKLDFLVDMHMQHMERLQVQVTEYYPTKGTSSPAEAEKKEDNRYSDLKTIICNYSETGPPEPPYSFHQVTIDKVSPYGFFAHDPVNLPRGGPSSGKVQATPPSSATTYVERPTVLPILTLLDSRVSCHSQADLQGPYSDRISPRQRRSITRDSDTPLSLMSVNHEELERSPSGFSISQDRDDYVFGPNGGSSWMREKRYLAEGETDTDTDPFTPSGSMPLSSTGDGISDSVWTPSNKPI

SMILES: COc1nc(N2CCOCC2)cc(C)c1C(=O)NCc1ccc(F)c(F)c1 [Example 87, N-[(3,4-Difluoro-phenyl)-methyl]-2-methoxy-4-methyl-6-morpholin-4-yl-pyridine-3-carboxylic acid amide]
- Emax: 138%
- EC50: 311 nM

SMILES: CCSc1nc(N2CCc3cc(C(F)(F)F)ccc3C2)cc(C)c1C(=O)NCc1cccc(F)c1 [Example 27, 2-Ethylsulfanyl-N-[(3-fluorophenyl)-methyl]-4-methyl-6-[6-(trifluoromethyl)-1,2,3,4-tetrahydro-isoquinolin-2-yl]pyridine-3-carboxylic acid amide]
- Emax: 132%
- EC50: 151 nM

SMILES: CCSc1nc(N2CCOCC2)cc(C)c1C(=O)NCC(=O)CC(C)(C)C [Example 324, N-(4,4-Dimethyl-2-oxo-pentyl)-2-ethylsulfanyl-4-methyl-6-morpholin-4-yl-pyridine-3-carboxylic acid amide]
- Emax: 166%
- EC50: 834 nM

SMILES: CCSc1nc(N2CCCC2)cc(C)c1C(=O)NCc1cccc(F)c1 [Example 25, 2-Ethylsulfanyl-N-[(3-fluorophenyl)-methyl]-4-methyl-6-pyrrolidin-1-yl-pyridine-3-carboxylic acid amide]
- Emax: 162%
- EC50: 211 nM

SMILES: CCSc1nc(N2CCOCC2)cc(C)c1C(=O)NCc1cccc(C#N)c1 [Example 102, N-[(3-Cyano-phenyl)-methyl]-2-ethylsulfanyl-4-methyl-6-morpholin-4-yl-pyridine-3-carboxylic acid amide]
- Emax: 138%
- EC50: 1220 nM

SMILES: CCSc1nc(N2CCC(O)CC2)cc(C)c1C(=O)NCc1cccc(F)c1 [Example 15, 2-Ethylsulfanyl-N-[(3-fluorophenyl)-methyl]-6-(4-hydroxy-piperidin-1-yl)-4-methyl-pyridine-3-carboxylic acid amide]
- Emax: 93%
- EC50: 7060 nM

SMILES: CCSc1nc(N(C)c2ccccc2)cc(C)c1C(=O)NCc1cccc(F)c1 [Example 302, 2-Ethylsulfanyl-N-[(3-fluorophenyl)-methyl]-4-methyl-6-(N-methyl-anilino)-pyridine-3-carboxylic acid amide]
- Emax: 93%
- EC50: 278 nM

SMILES: CCSc1nc(N(C)c2cccnc2)cc(C)c1C(=O)NCc1cccc(F)c1 [Example 171, 2-Ethylsulfanyl-N-[(3-fluorophenyl)-methyl]-4-methyl-6-(methyl-pyridin-3-yl-amino)-pyridine-3-carboxylic acid amide]
- Emax: 62%
- EC50: 1940 nM

SMILES: CCSc1nc(N2CCOCC2)cc(C)c1C(=O)NCCC1CCCCO1 (stereo not shown) [Example 68, 2-Ethylsulfanyl-4-methyl-6-morpholin-4-yl-N-(2-tetrahydro-pyran-2-yl-ethyl)-pyridine-3-carboxylic acid amide]
- Emax: 134%
- EC50: 7370 nM

SMILES: COCc1ccc(CNC(=O)c2c(C)cc(N3CCOCC3)nc2C2CC2)cc1F [Example 355, 2-Cyclopropyl-N-[[3-fluoro-4-(methoxymethyl)-phenyl]methyl]-4-methyl-6-morpholin-4-yl-pyridine-3-carboxylic acid amide]
- Emax: 167%
- EC50: 721 nM

SMILES: CCSc1nc(N2CCC(C(=O)O)CC2)cc(C)c1C(=O)NCc1cccc(F)c1 [Example 14]
- Emax: 16%

SMILES: CCSc1nc(N2CCOCC2)cc(C)c1C(=O)NCCC1CCCCC1 [Example 106, N-(2-Cyclohexyl-ethyl)-2-ethylsulfanyl-4-methyl-6-morpholin-4-yl-pyridine-3-carboxylic acid amide]
- Emax: 160%
- EC50: 172 nM

SMILES: Cc1cc(N2CCOCC2)nc(C(C)C)c1C(=O)NCc1ccc(C(F)(F)F)cc1 [Example 311, 2-Isopropyl-4-methyl-6-morpholin-4-yl-N-[[4-(trifluoromethyl)-phenyl]-methyl]pyridine-3-carboxylic acid amide]
- Emax: 146%
- EC50: 45 nM

SMILES: CSc1nc(N2CCOCC2)cc(C)c1C(=O)NCCCC(F)(F)F [Example 153, 4-Methyl-2-methylsulfanyl-6-morpholin-4-yl-N-(4,4,4-trifluoro-butyl)-pyridine-3-carboxylic acid amide]
- Emax: 210%
- EC50: 676 nM

SMILES: CCSc1nc(N(C)C2CCOCC2)cc(C)c1C(=O)NCc1cccc(F)c1 [Example 258, 2-Ethylsulfanyl-N-[(3-fluorophenyl)-methyl]-4-methyl-6-(methyl-tetrahydro-pyran-4-yl-amino)-pyridine-3-carboxylic acid amide]
- Emax: 170%
- EC50: 301 nM

SMILES: CCSc1nc(N2CCOCC2)cc(C)c1C(=O)NCCc1ccccc1 [Example 54, 2-Ethylsulfanyl-4-methyl-6-morpholin-4-yl-N-phenethyl-pyridine-3-carboxylic acid amide]
- Emax: 103%
- EC50: 2120 nM

SMILES: CCCc1nc(N2CCOC[C@H]2C)cc(C)c1C(=O)NCCCC(C)(C)C [Example 199, N-(4,4-Dimethyl-pentyl)-4-methyl-6-[(3R)-3-methyl-morpholin-4-yl]-2-propyl-pyridine-3-carboxylic acid amide]
- Emax: 232%
- EC50: 50 nM

SMILES: CCc1nc(N2CCOCC2)cc(C)c1C(=O)NCc1cccc(F)c1 [Example 22, 2-Ethyl-N-[(3-fluorophenyl)-methyl]-4-methyl-6-morpholin-4-yl-pyridine-3-carboxylic acid amide]
- Emax: 166%
- EC50: 790 nM

SMILES: CCSc1nc(N2CCO[C@@H](C)C2)cc(C)c1C(=O)NCc1cccc(F)c1 [Example 138, 2-Ethylsulfanyl-N-[(3-fluorophenyl)-methyl]-4-methyl-6-[(2S)-2-methyl-morpholin-4-yl]-pyridine-3-carboxylic acid amide]
- Emax: 125%
- EC50: 170 nM

SMILES: Cc1cc(N2CCOCC2)nc(C2CC2)c1C(=O)NCCCC(F)(F)F [Example 329, 2-Cyclopropyl-4-methyl-6-morpholin-4-yl-N-(4,4,4-trifluoro-butyl)-pyridine-3-carboxylic acid amide]
- Emax: 170%
- EC50: 763 nM

SMILES: CCSc1nc(N(C)C2CCCC(OC)C2)cc(C)c1C(=O)NCc1cccc(F)c1 (stereo not shown) [Example 307, 2-Ethylsulfanyl-N-[(3-fluorophenyl)-methyl]-6-[(3-methoxy-cyclohexyl)-methyl-amino]-4-methyl-pyridine-3-carboxylic acid amide]
- Emax: 104%
- EC50: 178 nM

SMILES: CCSc1nc(N2CCOC[C@@H]2CO)cc(C)c1C(=O)NCc1cccc(F)c1 [Example 263, 2-Ethylsulfanyl-N-[(3-fluorophenyl)-methyl]-6-[(3S)-3-(hydroxymethyl)-morpholin-4-yl]-4-methyl-pyridine-3-carboxylic acid amide]
- Emax: 114%
- EC50: 4140 nM

SMILES: CCSc1nc(N2CCOCC2)cc(C)c1C(=O)NCCCc1ccccc1 [Example 53, 2-Ethylsulfanyl-4-methyl-6-morpholin-4-yl-N-(3-phenyl-propyl)-pyridine-3-carboxylic acid amide]
- Emax: 191%
- EC50: 248 nM

SMILES: CSc1nc(N2CCOCC2)cc(C)c1C(=O)NCc1ccc(F)cc1 [Example 154, N-[(4-Fluorophenyl)-methyl]-4-methyl-2-methylsulfanyl-6-morpholin-4-yl-pyridine-3-carboxylic acid amide]
- Emax: 154%
- EC50: 394 nM

SMILES: Cc1cc(N2CCOCC2)nc(N(C)C)c1C(=O)NCCCC(C)(C)C [Example 245, 2-Dimethylamino-N-(4,4-dimethyl-pentyl)-4-methyl-6-morpholin-4-yl-pyridine-3-carboxylic acid amide]
- Emax: 225%
- EC50: 345 nM
